Measurements as given in ChEMBL document CHEMBL1154431, “Synthesis of biologically active N-methyl derivatives of amidines and cyclized five-membered products of amidines with oxalyl chloride” (2008).

Tests used:
Assay type in all cases: functional
[1] = test system: Mus musculus; assay: Analgesic activity in mouse assessed as decrease in acetic acid-induced writhing at 50 mg/kg, po administered 30 mins before acetic acid challenge measured after 1 hr; parameters: scale not given: the % may be the effect or the level left
[2] = test system: Mus musculus; assay: Analgesic activity in mouse assessed as decrease in acetic acid-induced writhing at 25 mg/kg, po administered 30 mins before acetic acid challenge measured after 1 hr; parameters: scale not given: the % may be the effect or the level left
[3] = test system: Rattus norvegicus; assay: Antiinflammatory activity against carrageenan-induced paw edema in albino rat at 100 mg/kg, po administered 30 mins before carrageenan challenge measured after 1 to 3 hrs
[4] = test system: Rattus norvegicus; assay: Antiinflammatory activity against carrageenan-induced paw edema in albino rat at 50 mg/kg, po administered 30 mins before carrageenan challenge measured after 1 to 3 hrs
[5] = test system: Rattus norvegicus; assay: Antiinflammatory activity against carrageenan-induced paw edema in albino rat at 25 mg/kg, po administered 30 mins before carrageenan challenge measured after 1 to 3 hrs
[6] = test system: Mus musculus; assay: Analgesic activity in mouse assessed as decrease in acetic acid-induced writhing at 100 mg/kg, po administered 30 mins before acetic acid challenge measured after 1 hr; parameters: scale not given: the % may be the effect or the level left

SMILES	Activity [1] [%]	Activity [2] [%]	Activity [3] [%]	Activity [4] [%]	Activity [5] [%]	Activity [6] [%]
CCCCC1C(=O)N(c2ccccc2)N(c2ccccc2)C1=O [PHENYLBUTAZONE]	40	24	58	37	19	58
COc1ccc(S(=O)(=O)NN2C(=O)C(=O)N=C2c2ccncc2)cc1	–	–	34	–	–	75
C/N=C(/NNS(=O)(=O)c1ccc(OC)cc1)c1ccccn1	20	–	–	20	–	–
Cc1ccc(S(=O)(=O)NN2C(=O)C(=O)N=C2c2ccccn2)cc1	60	–	–	31	–	–
C/N=C(/NNS(=O)(=O)c1ccccc1)c1ccncc1	7	–	–	16	–	–
O=C1N=C(c2cnccn2)N(NS(=O)(=O)c2ccccc2)C1=O	30	–	–	25	–	–
C/N=C(/NNS(=O)(=O)c1ccc(OC)cc1)c1ccncc1	13	–	–	21	–	–
COc1ccc(S(=O)(=O)NN2C(=O)C(=O)N=C2c2ccccn2)cc1	18	–	–	20	–	–
C/N=C(/NNS(=O)(=O)c1ccccc1)c1cnccn1	11	–	–	11	–	–
C/N=C(/NNS(=O)(=O)c1ccc(C)cc1)c1ccccn1	–	–	12	–	–	75
COc1ccc(S(=O)(=O)NN2C(=O)C(=O)N=C2c2cnccn2)cc1	12	–	–	13	–	–
O=C1N=C(c2ccncc2)N(NS(=O)(=O)c2ccccc2)C1=O	60	–	–	37	–	–
C/N=C(/NNS(=O)(=O)c1ccc(C)cc1)c1ccncc1	17	9	56	44	27	33
C/N=C(/NNS(=O)(=O)c1ccc(OC)cc1)c1cnccn1	16	–	–	20	–	–
